EP0130554A1, “Novel, physiologically active substance, process for production thereof and pharmaceutical composition containing the same” (KYOWA HAKKO KOGYO CO., LTD., priority 1983, dated 1985)

How the values were obtained:
Atria = assay: Inhibition of isoproterenol-induced positive chronotropic effect in spontaneously beating isolated atria (organ bath); type: cell-based, guinea pigs; conditions: Cavia porcellus, 0.5 h; MY336-a 30 µg/ml, added 30 minutes before isoproterenol hydrochloride 10^-9 g/ml; atrial rate, isolated guinea pig atria; read-out: blocked the positive chronotropic effect induced by isoproterenol hydrochloride
Protocol: Method: • Atria were rapidly isolated from guinea pigs (body weight: 500 - 700G) and mounted in an organ bath. The bath was filled with 30 ml oxygenated (95% 02, 5% C02) Krebs-Henseleit's solution at 31il°C. Atria were allowed to beat spontaneously and the contractions were isometrically recorded using force- displacement transducers. Resting force was adjusted to 0.5g. Then, atrial rate was measured. Then, a solution of isoproterenol hydrochloride in a very small amount of water was added thereto to make the isoproterenol hydrochloride concentration to be 10-^9 g/ml, and atrial rate was measured.
The solution was discarded and the bath was filled with krebs-Henseleit's solution, and allowed to stand until the atrial rate was brought back.
Then, a solution of MY336-a in a very small amount of 50% ethanol was added thereto to make the MY336-a concentration to be 30 µg/ml, and 30 minutes thereafter, a solution of isoproterenol hydrochloride in a very small amount of water was added thereto to make the isoproterenol hydrochloride concentration to be 10-^9 g/ml, and atrial rate was measured.

[1] = Solubility in various solvents; type: physicochemical
adrenergic receptor = assay: Agonistic/antagonistic activity on adrenergic receptor

## COc1c(C)cc2c(c1O)C(CO)NC(CO)C2 (stereo not drawn) [MY336-a]
Atria
  inhibition at 30 µg/mL: 84.9%
[1]; in acetone, hexane and ether
  Solubility: sparingly soluble
[1]; in acidic water
  Solubility: readily soluble
[1]; in water and methanol
  Solubility: soluble
Adrenergic receptor
  agonistic activity on adrenergic receptor: no agonistic activity
  antagonistic activity on adrenergic receptor: has an antagonistic activity
